Laboratory results published in ChEMBL document CHEMBL5104097, “Discovery of Cysteine-targeting Covalent Protein Kinase Inhibitors” (J Med Chem, 2022).

Columns and labels:
[1] = Inhibition of SRC T338M mutant (unknown origin); design: species or system Homo sapiens
BaF3 [2] = experiment: Antiproliferative activity against mouse BaF3 cells harboring wild-type FGFR1 assessed as reduction in cell proliferation measured after 72 hrs by MTS assay; assay type: functional, cell-based; conditions: BaF3, 72 h
BaF3 [3] = experiment: Antiproliferative activity against mouse BaF3 cells harboring wild-type FGFR2 assessed as reduction in cell proliferation measured after 72 hrs by MTS assay; assay type: functional, cell-based; conditions: BaF3, 72 h
BaF3 [4] = experiment: Antiproliferative activity against mouse BaF3 cells harboring wild-type FGFR3 assessed as reduction in cell proliferation measured after 72 hrs by MTS assay; assay type: functional, cell-based; conditions: BaF3, 72 h
BaF3 [5] = experiment: Antiproliferative activity against mouse BaF3 cells harboring wild-type FGFR4 assessed as reduction in cell proliferation measured after 72 hrs by MTS assay; assay type: functional, cell-based; conditions: BaF3, 72 h
BaF3 [6] = experiment: Antiproliferative activity against mouse BaF3 cells harboring FGFR2 V564M mutant assessed as reduction in cell proliferation measured after 72 hrs by MTS assay; assay type: functional, cell-based; conditions: BaF3, 72 h

SMILES: C=CS(=O)(=O)NCCC(=O)Nc1cccc(Nc2nccc(Nc3ncc(C(=O)Nc4c(C)cccc4Cl)s3)n2)c1
- IC50 [1]: 44 nM

SMILES: C=CC(=O)Nc1ccc(CN2C(=O)N(c3cc(OC)cc(OC)c3)Cc3cnc(Nc4ccc(N5CCN(C)CC5)cc4)nc32)cc1
- EC50 (BaF3 [2]): 1 nM
- EC50 (BaF3 [3]): 1 nM
- EC50 (BaF3 [4]): 1 nM
- EC50 (BaF3 [5]): 1 nM
- EC50 (BaF3 [6]): 58 nM

SMILES: C=CC(=O)Nc1ccc(CN(C(=O)Nc2c(Cl)c(OC)cc(OC)c2Cl)c2cc(Nc3ccc(N4CCN(C)CC4)cc3)ncn2)cc1
- EC50 (BaF3 [2]): 1 nM
- EC50 (BaF3 [3]): 1 nM
- EC50 (BaF3 [4]): 1 nM
- EC50 (BaF3 [5]): 1 nM
- EC50 (BaF3 [6]): 64 nM
